# Experimental data as given in US20230131899A1, “INHIBITORS OF MICROBIALLY INDUCED AMYLOID” (Axial Therapeutics, Inc., priority 2020, published 2023).
# Read-outs that look alike come from different tables or passages of the source.
# Target: T1, human α-synuclein (Homo sapiens, UniProt P37840)
# T1 construct: the full-length gene for untagged human α-synuclein was inserted; made in house; host or cells: E. coli BL21(DE3), plasmid derived from pT7 or pET11a
# Assay: Cell-free Thioflavin T assay of α-synuclein aggregation (αSyn ThT Assay)
# Assay type: biochemical
# Conditions: αSyn 50 μM, compounds at 100 μM
# Summary of the method: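 Inhibition is reported as 100% minus background-corrected ThT signal relative to vehicle wells, taken at 36, 47, 48 or 72 h or the last read. Reactions held 50 μM recombinant α-synuclein, 20-100 μM compound, 20-40 μM ThT and 1% DMSO. Incubation was at 37° C., shaken, with a glass bead.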
# [1] = mean % inhibition of αSyn aggregation relative to DMSO control, read-out: αSyn ThT Assay % Inhibition
# [2] = class symbol, read-out: αSyn ThT Assay % Inhibition (activity range)
Compound,inhibition at 100 µM [1],inhibition at 100 µM [2]
"O=C(O)C1CSc2c(-c3cccc(C(F)(F)F)c3)c(Cc3cccc4ccccc34)cc(=O)n21 (racemic) [Compound 011, 7-(naphthalen-1-ylmethyl)-5-oxo-8-(3-(trifluoromethyl)phenyl)-2,3-dihydro-5H-thiazolo[3,2-a]pyridine-3-carboxylic acid]",56%,31 to 60%
"CCCCCN1CC(C(=O)O)n2c(c(-c3cccc(C(F)(F)F)c3)c(Cc3cccc4ccccc34)cc2=O)S1(=O)=O (racemic) [Compound 025, 8-(naphthalen-1-ylmethyl)-6-oxo-2-pentyl-9-(3-(trifluoromethyl)phenyl)-3,4-dihydro-2H,6H-pyrido[1,2-e][1,2,5]thiadiazine-4-carboxylic acid 1,1-dioxide]",59%,31 to 60%
"O=C(O)C1C[S+]([O-])c2c(-c3cccc(C(F)(F)F)c3)c(Cc3cccc4ccccc34)cc(=O)n21 (racemic) [Compound 027b, 7-(naphthalen-1-ylmethyl)-5-oxo-8-(3-(trifluoromethyl)phenyl)-2,3-dihydro-5H-thiazolo[3,2-a]pyridine-3-carboxylic acid 1-oxide]",4%,-10 to 10%
"O=C(O)[C@@H]1CS(=O)(=O)c2c(-c3cccc(C(F)(F)F)c3)c(Cc3cccc4ccccc34)cc(=O)n21 (single isomer, unassigned) [Compound 010a, 7-(naphthalen-1-ylmethyl)-5-oxo-8-(3-(trifluoromethyl)phenyl)-2,3-dihydro-5H-thiazolo[3,2-a]pyridine-3-carboxylic acid 1,1-dioxide]",41%,31 to 60%
"O=C(O)[C@H]1CS(=O)(=O)c2c(-c3cccc(C(F)(F)F)c3)c(Cc3cccc4ccccc34)cc(=O)n21 (single isomer, unassigned) [Compound 010b, 7-(naphthalen-1-ylmethyl)-5-oxo-8-(3-(trifluoromethyl)phenyl)-2,3-dihydro-5H-thiazolo[3,2-a]pyridine-3-carboxylic acid 1,1-dioxide]",35%,31 to 60%
"O=C(O)C1CSc2c(-c3cccc(C(F)(F)F)c3)c(Cc3cccc4ccccc34)cc(=O)n21 (single isomer, unassigned) [Compound 011a, 7-(naphthalen-1-ylmethyl)-5-oxo-8-(3-(trifluoromethyl)phenyl)-2,3-dihydro-5H-thiazolo[3,2-a]pyridine-3-carboxylic acid]",13%,11 to 30%
"CCN1CC(C(=O)O)n2c(c(-c3cccc(C(F)(F)F)c3)c(Cc3cccc4ccccc34)cc2=O)S1(=O)=O (single isomer, unassigned) [Compound 015a, 2-ethyl-8-(naphthalen-1-ylmethyl)-6-oxo-9-(3-(trifluoromethyl)phenyl)-3,4-dihydro-2H,6H-pyrido[1,2-e][1,2,5]thiadiazine-4-carboxylic acid 1,1-dioxide]",62%,> 60%
"COc1ccc(CN2C[C@@H](C(=O)O)n3c(c(-c4cccc(C(F)(F)F)c4)c(Cc4cccc5ccccc45)cc3=O)S2(=O)=O)cc1 (single isomer, unassigned) [Compound 026a]",51%,31 to 60%
"CN(C)CCN1CC(C(=O)O)n2c(c(-c3cccc(C(F)(F)F)c3)c(Cc3cccc4ccccc34)cc2=O)S1(=O)=O (centres unmarked) [Compound 017, 2-(2-(dimethylamino)ethyl)-8-(naphthalen-1-ylmethyl)-6-oxo-9-(3-(trifluoromethyl)phenyl)-3,4-dihydro-2H,6H-pyrido[1,2-e][1,2,5]thiadiazine-4-carboxylic acid 1,1-dioxide]",53%,31 to 60%
"O=C(O)CN1CC(C(=O)O)n2c(c(-c3cccc(C(F)(F)F)c3)c(Cc3cccc4ccccc34)cc2=O)S1(=O)=O (centres unmarked) [Compound 018, 2-(carboxymethyl)-8-(naphthalen-1-ylmethyl)-6-oxo-9-(3-(trifluoromethyl)phenyl)-3,4-dihydro-2H,6H-pyrido[1,2-e][1,2,5]thiadiazine-4-carboxylic acid 1,1-dioxide]",22%,11 to 30%
"O=C(O)C1CSc2c(-c3cccc(C(F)(F)F)c3)c(Cc3cccc4ccccc34)nc(=O)n21 (centres unmarked) [Compound 022, 7-(naphthalen-1-ylmethyl)-5-oxo-8-(3-(trifluoromethyl)phenyl)-2,3-dihydro-5H-thiazolo[3,2-c]pyrimidine-3-carboxylic acid]",49%,31 to 60%
"Nc1c(Cc2cccc3ccccc23)c(-c2cccc(C(F)(F)F)c2)c2n(c1=O)C(C(=O)O)CS2(=O)=O (centres unmarked) [Compound 023, 6-amino-7-(naphthalen-1-ylmethyl)-5-oxo-8-(3-(trifluoromethyl)phenyl)-2,3-dihydro-5H-thiazolo[3,2-a]pyridine-3-carboxylic acid 1,1-dioxide]",21%,11 to 30%
"C=CCCN1CC(C(=O)O)n2c(c(-c3cccc(C(F)(F)F)c3)c(Cc3cccc4ccccc34)cc2=O)S1(=O)=O (centres unmarked) [Compound 024, 2-(but-3-en-1-yl)-8-(naphthalen-1-ylmethyl)-6-oxo-9-(3-(trifluoromethyl)phenyl)-3,4-dihydro-2H,6H-pyrido[1,2-e][1,2,5]thiadiazine-4-carboxylic acid 1,1-dioxide]",69%,> 60%
"NC(=O)CN1CC(C(=O)O)n2c(c(-c3cccc(C(F)(F)F)c3)c(Cc3cccc4ccccc34)cc2=O)S1(=O)=O (centres unmarked) [Compound 028, 2-(2-amino-2-oxoethyl)-8-(naphthalen-1-ylmethyl)-6-oxo-9-(3-(trifluoromethyl)phenyl)-3,4-dihydro-2H,6H-pyrido[1,2-e][1,2,5]thiadiazine-4-carboxylic acid 1,1-dioxide]",33%,31 to 60%
"CN1CC(C(N)=O)n2c(c(-c3cccc(C(F)(F)F)c3)c(Cc3cccc4ccccc34)cc2=O)S1(=O)=O (centres unmarked) [Compound 030, 2-methyl-8-(naphthalen-1-ylmethyl)-6-oxo-9-(3-(trifluoromethyl)phenyl)-3,4-dihydro-2H,6H-pyrido[1,2-e][1,2,5]thiadiazine-4-carboxamide 1,1-dioxide]",4%,-10 to 10%
"CN1CC(C(=O)O)n2c(c(-c3cccc(C(F)(F)F)c3)c(Cc3cccc4ccccc34)c(N)c2=O)S1(=O)=O (centres unmarked) [Compound 074, 7-amino-2-methyl-8-(naphthalen-1-ylmethyl)-6-oxo-9-(3-(trifluoromethyl)phenyl)-3,4-dihydro-2H,6H-pyrido[1,2-e][1,2,5]thiadiazine-4-carboxylic acid 1,1-dioxide]",38%,31 to 60%
"CN(C)Cc1c(Cc2cccc3ccccc23)c(-c2cccc(C(F)(F)F)c2)c2n(c1=O)C(C(=O)O)CS2 (centres unmarked) [Compound 075, 6-((dimethylamino)methyl)-7-(naphthalen-1-ylmethyl)-5-oxo-8-(3-(trifluoromethyl)phenyl)-2,3-dihydro-5H-thiazolo[3,2-a]pyridine-3-carboxylic acid]",2%,-10 to 10%
"CN1CC(C(=O)O)n2c(c(-c3cccc(C(F)(F)F)c3)c(Cc3cccc4ccccc34)c(C(N)=O)c2=O)S1(=O)=O (centres unmarked) [Compound 109, 7-carbamoyl-2-methyl-8-(naphthalen-1-ylmethyl)-6-oxo-9-(3-(trifluoromethyl)phenyl)-3,4-dihydro-2H,6H-pyrido[1,2-e][1,2,5]thiadiazine-4-carboxylic acid 1,1-dioxide]",99%,> 60%
"CCc1c(Cc2cccc3ccccc23)c(-c2cccc(C(F)(F)F)c2)c2n(c1=O)C(C(=O)O)CN(C1CCCCC1)S2(=O)=O (centres unmarked) [Compound 116, 2-cyclohexyl-7-ethyl-8-(naphthalen-1-ylmethyl)-6-oxo-9-(3-(trifluoromethyl)phenyl)-3,4-dihydro-2H,6H-pyrido[1,2-e][1,2,5]thiadiazine-4-carboxylic acid 1,1-dioxide]",47%,31 to 60%
"CN1CC(C(=O)O)n2c1c(-c1cccc(C(F)(F)F)c1)c(Cc1cccc3ccccc13)c(Br)c2=O (centres unmarked) [Compound 119, 6-bromo-1-methyl-7-(naphthalen-1-ylmethyl)-5-oxo-8-(3-(trifluoromethyl)phenyl)-1,2,3,5-tetrahydroimidazo[1,2-a]pyridine-3-carboxylic acid]",41%,31 to 60%
"O=C(O)C1CN(CCCO)S(=O)(=O)c2c(-c3cccc(C(F)(F)F)c3)c(Cc3cccc4ccccc34)c(NC3CCCC3)c(=O)n21 (centres unmarked) [Compound 120, 7-(cyclopentylamino)-2-(3-hydroxypropyl)-8-(naphthalen-1-ylmethyl)-6-oxo-9-(3-(trifluoromethyl)phenyl)-3,4-dihydro-2H,6H-pyrido[1,2-e][1,2,5]thiadiazine-4-carboxylic acid 1,1-dioxide]",40%,31 to 60%
"O=C(O)C1CN(CCCCO)S(=O)(=O)c2c(-c3cccc(C(F)(F)F)c3)c(Cc3cccc4ccccc34)c(NC3CCCC3)c(=O)n21 (centres unmarked) [Compound 121, 7-(cyclopentylamino)-2-(4-hydroxybutyl)-8-(naphthalen-1-ylmethyl)-6-oxo-9-(3-(trifluoromethyl)phenyl)-3,4-dihydro-2H,6H-pyrido[1,2-e][1,2,5]thiadiazine-4-carboxylic acid 1,1-dioxide]",27%,11 to 30%
